Assay results: patent US20250263440A1, “CD38-BINDING AGENTS AND USES THEREOF” (PeptiDream Inc., priority 2019, published 2025)
Positions of bridges follow the written chain, without caps; N, C: chain ends. Non-standard residues stand in square brackets, D forms with d. Residues, ends and D or L forms follow the SMILES beside them. No end group written: not given here. Ala(2-NH2-4-pyridyl) = Nc1cc(C[C@H](N)C(=O)O)ccn1; Bip = N[C@@H](Cc1ccc(-c2ccccc2)cc1)C(=O)O; Arg(Me2a) = CN(C)C(=N)NCCC[C@H](N)C(=O)O; Nle(6-Ph) = N[C@@H](CCCCc1ccccc1)C(=O)O; Arg(Me2s) = CN=C(NC)NCCC[C@H](N)C(=O)O; Arg(Me) = CNC(=N)NCCC[C@H](N)C(=O)O; hCit = NC(=O)NCCCC[C@H](N)C(=O)O; Ahp(2) = CCCCC[C@H](N)C(=O)O

Columns and labels:
His-tagged CD38 = His-tagged CD38 (Homo sapiens, UniProt P28907); experiment: SPR assay (Biacore S200, Sensor Chip NTA, single-cycle kinetics) of SEQ ID NO.1 variants against His-tagged CD38; type: binding; settings: for Kd: SPR Biacore S200, His-tagged CD38, calculated from ka and kd; for kon / koff: SPR Biacore S200, NTA chip, His-tagged CD38; for kon: read-out: Ka (association rate constant); for koff: read-out: Kd (dissociation rate constant)
Protocol: SPR assay was performed using Biacore S200 (Cytiva: Former GE Healthcare).
After the equilibration of Series S Sensor Chip NTA (produced by Cytiva: Former GE Healthcare) with Running Buffer (10 mM HEPES pH7.4, 150 mM NaCl, 0.05% Tween 20), followed by injection of 350 mM EDTA at a flow rate of 10 L/min for 60 seconds and […] NiCl2 at a flow rate of 10 L/min for 60 seconds, then 3 mM EDTA at a flow rate of 10 L/min for 120 seconds, sequently, to wash the sensor chip.
EDC/NHS mixture was injected at a flow rate of […] for 7 minutes to thereby activate the functional groups on sensor chip. His-tagged CD38 in Running Buffer (10 mM HEPES pH7.4, 150 mM NaCl, 0.05% Tween 20) was injected immobilized to at a flow rate of […]. For 7 minutes to immobilize the CD38 on the substrate surfaces of the sensor chip. Then Ethanolamine was injected at a flow rate of […] for 7 minutes.
1.0 M Ethanolamine(aq.) was injected at a flow rate of 10 L/min for 420 seconds for capping. 10 mM peptides (which were synthesised described above) in DMSO were diluted to obtain 10 uM with Running Buffer, and prepared 100 nM, 50 nM, 25 nM, 10 nM, 5 nM of each peptide's solutions (Peptide Samples).
Using these Peptide Samples, kinetics of peptides against His-tagged CD38 was measured. The method adopted for sample measurement was a single-cycle kinetics method. The analysis was conducted using the evaluation software 1.1 provided with Biacore S200. A DMSO correction curve obtained by solvent correction measurements was applied for the analysis. Kinetics fitting was done on the difference data obtained by subtracting the baseline data from sample measurement data.
KD values were calculated based on the association rate constant (ka) and dissociation rate constant (kd).

[1] = biological target: Recombinant human CD38 protein (R&D Systems) (human, UniProt P28907 43-300); experiment: ELISA

Molecule	Kd (His-tagged CD38) [nM]	kon (His-tagged CD38) [M⁻¹ s⁻¹]	koff (His-tagged CD38) [s⁻¹]	Binding Assay (larger values indicate stronger binding) [1]
{CH2CO}-AA[Ahp(2)]YHDGVL[Bip][Ahp(2)]DC (thioether N-13) [I-1 analogue with Ala at position 2 (A A Ahp Y H D G V L Bph Ahp D C)]				0.6
{CH2CO}-AR[Ahp(2)]YHAGVL[Bip][Ahp(2)]DC (thioether N-13) [I-1 analogue with Ala at position 6 (A R Ahp Y H A G V L Bph Ahp D C)]				0.93
{CH2CO}-AR[Ahp(2)]YADGVL[Bip][Ahp(2)]DC (thioether N-13) [I-1 analogue with Ala at position 5 (A R Ahp Y A D G V L Bpb Ahp D C)]				0.28
{CH2CO}-AR[Ahp(2)]AHDGVL[Bip][Ahp(2)]DC (thioether N-13) [I-1 analogue with Ala at position 4 (A R Ahp A H D G V L Bph Ahp D C)]				0.11

Results, then the molecule that gave them:

Kd (His-tagged CD38) [nM]	kon (His-tagged CD38) [M⁻¹ s⁻¹]	koff (His-tagged CD38) [s⁻¹]	Binding Assay (larger values indicate stronger binding) [1]	Molecule
3.1	350000	0.0011		CCCCC[C@@H]1NC(=O)[C@H](CCCNC(=N)NC)NC(=O)[C@H](C)NC(=O)CSC[C@@H](C(N)=O)NC(=O)[C@H](CC(=O)O)NC(=O)[C@H](CCCCc2ccccc2)NC(=O)[C@H](Cc2ccc(-c3ccccc3)cc2)NC(=O)[C@H](CC(C)C)NC(=O)[C@H](C(C)C)NC(=O)[C@H](CCC(=O)O)NC(=O)[C@H](CC(=O)O)NC(=O)[C@H](Cc2c[nH]cn2)NC(=O)[C@H](Cc2ccc(O)cc2)NC1=O [compound 30] ({CH2CO}-A[Arg(Me)][Ahp(2)]YHDEVL[Bip][Nle(6-Ph)]DC-NH2; thioether N-13)
2.6	480000	0.0012		CCCCC[C@@H]1NC(=O)[C@H](CCCNC(=NC)NC)NC(=O)[C@H](C)NC(=O)CSC[C@@H](C(N)=O)NC(=O)[C@H](CC(=O)O)NC(=O)[C@H](CCCCc2ccccc2)NC(=O)[C@H](Cc2ccc(-c3ccccc3)cc2)NC(=O)[C@H](CC(C)C)NC(=O)[C@H](C(C)C)NC(=O)[C@H](CCC(=O)O)NC(=O)[C@H](CC(=O)O)NC(=O)[C@H](Cc2c[nH]cn2)NC(=O)[C@H](Cc2ccc(O)cc2)NC1=O [compound 31] ({CH2CO}-A[Arg(Me2s)][Ahp(2)]YHDEVL[Bip][Nle(6-Ph)]DC-NH2; thioether N-13)
5.6	250000	0.0014		CCCCC[C@@H]1NC(=O)[C@H](CCCNC(=N)N(C)C)NC(=O)[C@H](C)NC(=O)CSC[C@@H](C(N)=O)NC(=O)[C@H](CC(=O)O)NC(=O)[C@H](CCCCc2ccccc2)NC(=O)[C@H](Cc2ccc(-c3ccccc3)cc2)NC(=O)[C@H](CC(C)C)NC(=O)[C@H](C(C)C)NC(=O)[C@H](CCC(=O)O)NC(=O)[C@H](CC(=O)O)NC(=O)[C@H](Cc2c[nH]cn2)NC(=O)[C@H](Cc2ccc(O)cc2)NC1=O [compound 32] ({CH2CO}-A[Arg(Me2a)][Ahp(2)]YHDEVL[Bip][Nle(6-Ph)]DC-NH2; thioether N-13)
6.7	220000	0.0015		CCCCC[C@@H]1NC(=O)[C@H](CCCCNC(N)=O)NC(=O)[C@H](C)NC(=O)CSC[C@@H](C(N)=O)NC(=O)[C@H](CC(=O)O)NC(=O)[C@H](CCCCc2ccccc2)NC(=O)[C@H](Cc2ccc(-c3ccccc3)cc2)NC(=O)[C@H](CC(C)C)NC(=O)[C@H](C(C)C)NC(=O)[C@H](CCC(=O)O)NC(=O)[C@H](CC(=O)O)NC(=O)[C@H](Cc2c[nH]cn2)NC(=O)[C@H](Cc2ccc(O)cc2)NC1=O [compound 33] ({CH2CO}-A[hCit][Ahp(2)]YHDEVL[Bip][Nle(6-Ph)]DC-NH2; thioether N-13)
10.4	120000	0.0012		CCCCC[C@@H]1NC(=O)[C@H](Cc2ccnc(N)c2)NC(=O)[C@H](C)NC(=O)CSC[C@@H](C(N)=O)NC(=O)[C@H](CC(=O)O)NC(=O)[C@H](CCCCc2ccccc2)NC(=O)[C@H](Cc2ccc(-c3ccccc3)cc2)NC(=O)[C@H](CC(C)C)NC(=O)[C@H](C(C)C)NC(=O)[C@H](CCC(=O)O)NC(=O)[C@H](CC(=O)O)NC(=O)[C@H](Cc2c[nH]cn2)NC(=O)[C@H](Cc2ccc(O)cc2)NC1=O [compound 34] ({CH2CO}-A[Ala(2-NH2-4-pyridyl)][Ahp(2)]YHDEVL[Bip][Nle(6-Ph)]DC-NH2; thioether N-13)
